# Assay results published in ChEMBL document CHEMBL6114974, “Development of novel BACE1 inhibitors with a hydroxyproline-derived N-amidinopyrrolidine scaffold” (Bioorg Med Chem, 2025).
# Target: Beta-secretase 1 (Homo sapiens, UniProt P56817)
# Assay: Inhibition of recombinant BACE1 (unknown origin) using H-Ile-Lys-Thr-Glu-Glu-Ile-Ser-Glu-Val-Asn-Leu-Asp-Ala-Glu-Phe-Arg-His-Asp-Ser-Gly-NH2 as substrate measured after 90 mins by HPLC analysis
# Chain of Beta-secretase 1 (P56817 whole entry): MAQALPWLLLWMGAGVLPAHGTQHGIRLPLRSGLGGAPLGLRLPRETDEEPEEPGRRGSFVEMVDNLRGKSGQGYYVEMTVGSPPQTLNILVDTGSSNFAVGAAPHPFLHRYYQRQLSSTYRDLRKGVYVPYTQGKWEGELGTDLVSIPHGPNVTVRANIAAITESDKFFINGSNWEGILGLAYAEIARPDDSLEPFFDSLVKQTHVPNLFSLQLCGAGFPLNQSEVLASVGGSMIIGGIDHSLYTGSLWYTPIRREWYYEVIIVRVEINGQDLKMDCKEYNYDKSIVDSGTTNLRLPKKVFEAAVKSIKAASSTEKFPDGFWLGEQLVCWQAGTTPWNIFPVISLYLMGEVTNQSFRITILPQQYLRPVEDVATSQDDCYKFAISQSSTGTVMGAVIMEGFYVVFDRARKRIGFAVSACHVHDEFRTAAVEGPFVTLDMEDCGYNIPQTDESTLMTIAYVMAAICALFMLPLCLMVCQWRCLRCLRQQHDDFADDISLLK
structure (smiles),measurement,value
C[C@H]1OC[C@]2(c3cc(NC(=O)c4cnc(C(F)F)cn4)ccc3F)N=C(N)SC[C@H]12 [ELENBECESTAT],IC50,57 nM
